In patent US8480638B2, “Intraocular iontophoretic device and associated methods” (Aciont, Inc., priority 2007, dated 2013):

Assays:
[1] = MRI distribution of Mn^++ in the rabbit eye after iontophoresis with an iontophoretic scleral lens device with suction; assay type: in vivo; conditions: suction applied, hydrogel 1.0M Mn^++, 3 mA for 20 minutes, 3 Tesla MRI, FIG. 8
Excerpt: An iontophoretic scleral lens device is configured to conform to the eye of a rabbit. An electroplated AgAgCl electrode coupled to a 1.0M Mn^++ filled hydrogel is located within a reservoir structure along the contact surface of the scleral lens. The iontophoretic device is coupled to a power source and positioned on an eye of a rabbit, such that the reservoir is located partially within the cul-de-sac in a dorsal region of the eye. A return electrode is attached to the ear of the rabbit, and suction is applied to the scleral lens to preclude movement of the lens relative to the eye surface. 3 mA of current is applied to the scleral lens device for 20 minutes to deliver the Mn^++ from the hydrogel and into the eye. […] Diffusion from this region can be seen in the white band extending toward the posterior eye tissues.

[2] = MRI distribution of Mn^++ in the rabbit eye after iontophoresis with a handheld ocular iontophoretic device; assay type: in vivo; conditions: finger pressure, hydrogel 1.0M Mn^++, 2 mA for 20 minutes, return electrode on ear, 3 Tesla MRI, FIG. 7
Excerpt: A handheld ocular iontophoretic device is constructed from a plastic tube, wherein one end is shaped to conform to the eye of a rabbit. An electroplated AgAgCl electrode is positioned in one end of the plastic tube and a hydrogel is inserted into the tube so that one side of the hydrogel contacts the electrode, while the opposite side is configured to contact the eye. The hydrogel has been previously loaded with 1.0M Mn^++. The iontophoretic device is coupled to a power source and placed against the surface of an eye of a rabbit, partially within the cul-de-sac in a dorsal location. A return electrode is attached to the ear of the rabbit, and finger pressure is used to seal the device against the eye. 2 mA of current is applied to the iontophoretic device for 20 minutes to deliver the Mn^++ from the hydrogel and into the eye.

[Mn+2] [Mn^++]
Depot formation in the eye (MRI, black region along the dorsal region of the eye) [1]: formation of a depot of concentrated Mn^++
Distribution of the Mn^++ within the eye of the rabbit (MRI, white contrast) ([1]; return electrode on ear): delivered primarily into the eye tissues
Distribution of the Mn^++ within the eye of the rabbit (MRI, white contrast) [2]: delivered primarily to the eyelid and surrounding tissues with relatively little delivery into the eye itself
